The text below walks through data of PMC11230868, “eIF2β zinc-binding domain interacts with the eIF2γ subunit through the guanine nucleotide binding interface to promote Met-tRNAi^Met binding” (Bioscience Reports, 2024).

One assay addresses T1, eIF2 complex (eIF2αβγ) (Saccharomyces cerevisiae, UniProt P32481).
T1 construct: gene GCD11; full-length heterotrimer, 8xHis tag on N-terminus of eIF2γ (GCD11), overexpressed from pRS425_GCD11, SUI3, SUI2 in yeast YP920 (sui2Δ sui3Δ gcd11Δ); Ni-NTA, heparin and cation exchange; with Eukaryotic translation initiation factor 2 subunit alpha
The experiment in a line: fluorescence anisotropy titration of protein. In kind it is binding. Particulars: labelled compound at 100 nM; pH 7.5, 110 mM K acetate, 2.5 mM Mg acetate, 26 °C; Hill fit n = 1.

Assay [1] deals with T2, 3xHA-tagged eIF2β T238A mutant (yeast, UniProt P09064 1-285, T238A).
T2 construct: eIF2β, yeast SUI3 ORF + terminator with T238A, cloned behind SUI3 promoter + 3xHA; also called 3xHA-SUI3-T238A; source: yeast, single-copy plasmid, in whole-cell extract; not shown: 3xHA, N-terminal, kept
T2 sequence (looked up): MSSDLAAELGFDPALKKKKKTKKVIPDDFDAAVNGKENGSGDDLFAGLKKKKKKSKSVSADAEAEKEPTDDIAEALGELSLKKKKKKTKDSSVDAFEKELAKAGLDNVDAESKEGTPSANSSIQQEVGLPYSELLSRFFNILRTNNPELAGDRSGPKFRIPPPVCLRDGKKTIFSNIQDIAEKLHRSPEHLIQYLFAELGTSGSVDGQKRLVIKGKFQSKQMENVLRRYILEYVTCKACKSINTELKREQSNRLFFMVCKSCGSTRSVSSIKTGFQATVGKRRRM
Briefly: co-IP; Co-IP of the 3xHA-tagged eIF2β subunit from yeast extract (Supplementary Figure S1). The settings on record: partners not purified.

For assay [2], the target named is T3, N-terminal 3xHA-tagged eIF2γ (wild type) (yeast, UniProt P32481 1-527).
T3 construct: eIF2γ, yeast GCD11; GCD11 ORF + terminator cloned behind GCD11 promoter + 3xHA; also called 3xHA eIF2γ; eIF2γ^WT; source: yeast strain YP912 (gcd11Δ, sui3Δ), single-copy plasmid, in whole-cell extract; not shown: 3xHA, N-terminal, kept
T3 sequence (P32481 whole entry): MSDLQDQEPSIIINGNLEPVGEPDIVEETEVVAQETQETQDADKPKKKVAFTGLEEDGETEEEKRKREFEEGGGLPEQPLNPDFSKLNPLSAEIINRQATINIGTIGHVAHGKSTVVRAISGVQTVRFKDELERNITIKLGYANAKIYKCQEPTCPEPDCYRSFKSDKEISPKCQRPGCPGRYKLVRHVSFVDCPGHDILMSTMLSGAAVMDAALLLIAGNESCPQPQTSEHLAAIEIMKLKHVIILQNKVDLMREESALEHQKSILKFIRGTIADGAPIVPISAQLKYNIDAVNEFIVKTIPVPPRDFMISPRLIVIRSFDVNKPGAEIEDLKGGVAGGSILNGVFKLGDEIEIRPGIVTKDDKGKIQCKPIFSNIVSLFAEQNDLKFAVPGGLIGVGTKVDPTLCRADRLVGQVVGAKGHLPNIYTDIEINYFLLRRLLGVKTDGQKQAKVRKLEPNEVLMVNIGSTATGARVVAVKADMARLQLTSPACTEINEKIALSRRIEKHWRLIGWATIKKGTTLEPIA
Briefly: co-IP; 3xHA-eIF2γ precipitated with anti-HA agarose beads from 300 μg yeast WCE (YP912), 4°C, 1 h; 20 mM HEPES pH 7.5, 100 mM KCl, 5 mM MgCl2, 5 mM NaF, 1 mM EDTA, 0.2% NP-40, 1% BSA; Western blot, bands normalised to the anti-HA band. Particulars: partners not purified.

T1 sequence (P32481 whole entry, one chain of several): as the sequence (P32481 whole entry) above
T1 sequence (P09064 whole entry partner, one chain of several): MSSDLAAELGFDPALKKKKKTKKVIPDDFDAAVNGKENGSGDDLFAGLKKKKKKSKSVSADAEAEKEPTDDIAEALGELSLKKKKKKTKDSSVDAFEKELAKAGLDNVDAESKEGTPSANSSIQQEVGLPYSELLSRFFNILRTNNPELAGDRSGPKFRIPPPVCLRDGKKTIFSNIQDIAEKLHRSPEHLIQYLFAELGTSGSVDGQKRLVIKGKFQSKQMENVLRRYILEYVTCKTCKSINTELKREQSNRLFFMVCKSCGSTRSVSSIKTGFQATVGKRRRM

On eIF2 complex (eIF2αβγ), GDP-BODIPY displayed a Kd of 0.0367 µM. For the molecule GDPγS-BODIPY, on eIF2 complex (eIF2αβγ), the affinity, expressed as Kd, was 1.4 µM. This Kd lies about 38-fold higher than the previous one.

B1: eIF2α subunit (natural protein, yeast, UniProt P20459 1-304, looked up)
chain: MSTSHCRFYENKYPEIDDIVMVNVQQIAEMGAYVKLLEYDNIEGMILLSELSRRRIRSIQKLIRVGKNDVAVVLRVDKEKGYIDLSKRRVSSEDIIKCEEKYQKSKTVHSILRYCAEKFQIPLEELYKTIAWPLSRKFGHAYEAFKLSIIDETVWEGIEPPSKDVLDELKNYISKRLTPQAVKIRADVEVSCFSYEGIDAIKDALKSAEDMSTEQMQVKVKLVAAPLYVLTTQALDKQKGIEQLESAIEKITEVITKYGGVCNITMPPKAVTATEDAELQALLESKELDNRSDSEDDEDESDDE
notes: eIF2α, yeast SUI2; chromosomal gene in the co-IP strains, whole SUI2 gene on pRS425 for the purified complex; also called SUI2; source: endogenous, yeast whole-cell extract (YP912); yeast YP920, high-copy pRS425 plasmid, co-purified in the 8xHis-eIF2 complex
As for B1, the “fold change of binding against the 3xHA-eIF2β wild type” value in assay [1] amounted to 1.3 fold. The “fold change of binding in the eIF2β^T238A strain against the eIF2β^WT strain” value in assay [2] was about 4.5 fold.
